Data: PubChem BioAssay (NCI)
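How tested: cells in 96-well plates exposed to compound for 48 hours at five concentrations. The concentration for 50% growth inhibition is given as GI50. Definition used: TGI = concentration required for complete inhibition of growth.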

Assays:
Experiment in all cases: inhibition of tumour cell growth, NCI panel, 48 h
[1] = test system: KM12 colon
[2] = test system: A549 NSCLC
[3] = test system: NCI-H522 lung
[4] = test system: NCI-H460 lung
[5] = test system: RXF 393 renal
[6] = test system: HT29 colon
[7] = test system: EKVX NSCLC
[8] = test system: SK-OV-3 ovarian
[9] = test system: SR leukemia
[10] = test system: A498 renal

SMILES	TGI [1]	TGI [2]	TGI [3]	TGI [4]	TGI [5]	TGI [6]	TGI [7]	TGI [8]	TGI [9]	TGI [10]	GI50 [1]	GI50 [2]	GI50 [3]	GI50 [4]	GI50 [5]	GI50 [6]	GI50 [7]	GI50 [8]	GI50 [9]	GI50 [10]
O=C(/C=C/c1ccc(Cl)c(Cl)c1)CCN1CCN(CCC(=O)/C=C/c2ccc(Cl)c(Cl)c2)CC1	40.6 µM	> 100 µM	31.6 µM	38.5 µM	38.9 µM	46.8 µM	> 100 µM	> 100 µM	> 100 µM	> 100 µM	–	–	–	–	–	–	–	–	–	–
O/N=C1\CC2(N3CCOCC3)CCC1(Cc1ccccc1)CC2	> 100 µM	> 100 µM	> 100 µM	> 100 µM	42 µM	> 100 µM	> 100 µM	83 µM	> 100 µM	88.9 µM	–	–	–	–	–	–	–	–	–	–
COc1cc2cnc3c(c2cc1OC)Cc1cc2c(cc1-3)OCO2	> 100 µM	> 54.5 µM	–	0.034 µM	> 92.5 µM	73.4 µM	55.9 µM	26 µM	0.0145 µM	17.8 µM	< 0.01 µM	< 0.0153 µM	< 0.01 µM	< 0.01 µM	0.0322 µM	< 0.01 µM	0.0279 µM	0.0203 µM	< 0.01 µM	< 0.0183 µM
O=C(O)c1cc2c(cc1S(=O)(=O)O)C1C(C3C2C2(Cl)C(Cl)=C(Cl)C3(Cl)C2(Cl)Cl)C2(Cl)C(Cl)=C(Cl)C1(Cl)C2(Cl)Cl (stereo not given)	> 100 µM	> 100 µM	46.8 µM	> 100 µM	> 100 µM	48 µM	> 100 µM	> 100 µM	74.7 µM	> 100 µM	–	–	–	–	–	–	–	–	–	–
C=CC1(CBr)CCC(C(C)(C)Br)O1 (stereo not given)	26.1 µM	33.9 µM	7.14 µM	27.7 µM	27.3 µM	14.4 µM	32.1 µM	29 µM	8.58 µM	33.5 µM	–	–	–	–	–	–	–	–	–	–
O=C(c1ccco1)N1CCN(C(=O)c2ccco2)C1=S	15 µM	35.5 µM	19.4 µM	30 µM	12 µM	24.2 µM	36.7 µM	40.8 µM	12.1 µM	35.8 µM	–	–	–	–	–	–	–	–	–	16.6 µM
COc1ccc(NC(C)=O)c(C(=O)CCNC(C)=O)c1	> 100 µM	> 100 µM	> 100 µM	> 100 µM	> 100 µM	> 100 µM	> 100 µM	> 100 µM	> 100 µM	> 100 µM	–	–	–	–	–	–	–	–	–	–
CCOC(=O)NNC1(SC)NC(=O)c2c(cc(Cl)oc2=O)O1 (stereo not given)	23.6 µM	21.1 µM	6.26 µM	23.7 µM	6.93 µM	5.26 µM	20.4 µM	26.8 µM	6.69 µM	29.2 µM	–	–	–	–	–	–	–	–	–	–
C=C1CC(CNc2cc(Cl)nc(N)n2)C1	> 100 µM	> 100 µM	> 100 µM	> 100 µM	> 100 µM	> 100 µM	> 100 µM	> 100 µM	> 100 µM	76.3 µM	–	–	–	–	–	–	–	–	–	–
COc1cccc2c1C(=O)c1ccc3cc(CO)cc(O)c3c1C2=O	6.14 µM	2.76 µM	5.89 µM	1.17 µM	7.09 µM	3.9 µM	4.89 µM	8.61 µM	1.31 µM	9.62 µM	–	–	–	–	–	–	–	–	–	–
CCCCCC(/C=N/NC(N)=S)C(O)(C(F)(F)F)C(F)(F)F (stereo not given)	> 10 µM	> 10 µM	> 10 µM	> 10 µM	> 10 µM	> 10 µM	> 10 µM	> 10 µM	> 10 µM	> 10 µM	–	–	–	–	–	–	–	–	–	–
c1ccc(-c2cc(-c3cc(-c4ccccc4)n[nH]3)[nH]n2)cc1	> 100 µM	> 100 µM	> 100 µM	> 100 µM	> 100 µM	> 100 µM	> 100 µM	> 100 µM	> 100 µM	> 100 µM	–	–	–	–	–	–	–	–	–	–
